Assay results as given in ChEMBL document CHEMBL5325421, “Discovery of novel sulfonamide chromone-oxime derivatives as potent indoleamine 2,3-dioxygenase 1 inhibitors” (Eur J Med Chem, 2023).

Experiments:
[1] = target: T1, Indoleamine 2,3-dioxygenase 1 (Homo sapiens, UniProt P14902); assay: Inhibition of human recombinant IDO1 measured after 60 mins by fluorescence based analysis
[2] = target: T1, Indoleamine 2,3-dioxygenase 1; assay: Inhibition of IDO1 in IFN-gamma treated human HeLa cells incubated for 48 hrs by absorbance based analysis; assay type: cell-based
HCT-116 = assay: cells; conditions: Homo sapiens, HCT-116, 48 h
SW480 = assay: cells; conditions: Homo sapiens, SW480, 48 h
A549 = assay: cells; conditions: Homo sapiens, A549, 48 h
HeLa = assay: cells; conditions: Homo sapiens, 48 h
CT26 = assay: Antitumor activity against mouse CT26 cells xenografted in BALB/c mouse model assessed as reduction in tumor weight at 100 mg/kg measured every 3 days for 21 days by caliper method relative to control; assay type: functional; set-up: scale not given: the % may be the effect or the level left; conditions: time 21 day
[3] = Toxicity in BALB/c mouse assessed as change in body weight at 100 mg/kg measured upto 22 days; assay type: organism-based; conditions: in vivo, 528 h, time < 22 day

T1 sequence (P14902 whole entry): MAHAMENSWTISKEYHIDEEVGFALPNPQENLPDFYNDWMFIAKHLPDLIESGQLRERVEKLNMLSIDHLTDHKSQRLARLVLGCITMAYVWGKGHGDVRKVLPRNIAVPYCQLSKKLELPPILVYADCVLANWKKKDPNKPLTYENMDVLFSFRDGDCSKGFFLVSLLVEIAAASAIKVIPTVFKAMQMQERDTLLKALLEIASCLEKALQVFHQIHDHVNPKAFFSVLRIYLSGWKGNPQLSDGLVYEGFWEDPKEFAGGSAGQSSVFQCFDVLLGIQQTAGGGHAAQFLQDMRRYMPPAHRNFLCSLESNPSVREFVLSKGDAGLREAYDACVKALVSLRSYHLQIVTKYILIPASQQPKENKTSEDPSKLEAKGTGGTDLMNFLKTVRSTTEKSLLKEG

Structure (SMILES)	IC50 [1] [µM]	IC50 [2] [µM]	IC50 (HCT-116) [µM]	IC50 (SW480) [µM]	IC50 (A549) [µM]	IC50 (HeLa) [µM]	Activity (CT26) [%]	Activity [3]
COc1ccc2/c(=N/O)cc(C(=O)N3CCN(S(=O)(=O)c4ccc(OC)c(OC)c4)CC3)oc2c1	0.92	1.68	47.8	> 50	> 50	34	–	–
COc1ccc2/c(=N/O)cc(C(=O)N3CCN(S(=O)(=O)c4ccccc4C)CC3)oc2c1	> 10	> 10	23.5	> 50	> 50	> 50	–	–
COc1ccc2/c(=N/O)cc(C(=O)N3CCN(S(=O)(=O)c4ccc(F)cc4)CC3)oc2c1	5.72	7.23	> 50	12.4	> 50	> 50	–	–
Cc1ccc2/c(=N/O)cc(C(=O)N3CCN(S(=O)(=O)c4ccc(F)c(F)c4)CC3)oc2c1	5.59	5.75	4.18	27.6	> 50	> 50	–	–
COc1ccc2/c(=N/O)cc(C(=O)N3CCN(S(=O)(=O)c4ccc(C)cc4)CC3)oc2c1	> 10	> 10	31.1	33.1	36.9	20.1	–	–
COc1ccc2/c(=N/O)cc(C(=O)N3CCN(S(=O)(=O)c4ccc([N+](=O)[O-])cc4)CC3)oc2c1	3.58	5.66	> 50	> 50	> 50	30.1	–	–
COc1ccc2/c(=N/O)cc(C(=O)N3CCN(S(=O)(=O)c4cccc(F)c4)CC3)oc2c1	2.38	4.13	> 50	> 50	> 50	42.8	–	–
Cc1ccc2/c(=N/O)cc(C(=O)N3CCN(S(=O)(=O)c4cccc([N+](=O)[O-])c4)CC3)oc2c1	7.52	8.84	6.44	17.1	> 50	29.4	–	–
Cc1ccc2/c(=N/O)cc(C(=O)N3CCN(S(=O)(=O)c4ccc(Cl)cc4)CC3)oc2c1	> 10	> 10	15.2	> 50	> 50	> 50	–	–
Cc1ccc2/c(=N/O)cc(C(=O)N3CCN(S(=O)(=O)c4ccc(Br)cc4)CC3)oc2c1	> 10	> 10	28.3	> 50	46.1	> 50	–	–
Cn1cc(C[C@H](N)C(=O)O)c2ccccc21 [(L)-1-METHYLTRYPTOPHAN]	–	–	–	–	–	–	45.6	Non-Toxic
COc1ccc(S(=O)(=O)N2CCN(C(=O)c3c/c(=N\O)c4ccc(C)cc4o3)CC2)cc1	9.45	> 10	1.48	17.6	41.4	> 50	–	–
COc1ccc(S(=O)(=O)N2CCN(C(=O)c3c/c(=N\O)c4ccc(OC)cc4o3)CC2)cc1	6.35	8.52	29.5	39.2	> 50	36.8	–	–
